Measurements taken from US7482329B2, “Single domain TDF-related compounds and analogs thereof” (Thrasos Therapeutics, priority 2002, dated 2009).
“Also recorded” adds a separate entry of the source. Where a SMILES comes first, the peptide text is derived from it.

T1: BMPR-2 receptor extra cellular domain (Homo sapiens, UniProt Q13873)
T1 construct: immobilized BMPR-2 receptor extra cellular domain (ECD)
T1 sequence (Q13873 27-150 limits assumed): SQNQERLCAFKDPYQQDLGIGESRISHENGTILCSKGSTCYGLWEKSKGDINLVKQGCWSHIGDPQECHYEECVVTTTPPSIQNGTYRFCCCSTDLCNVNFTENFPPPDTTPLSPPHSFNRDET

B1: TDF-1: TDF-1 (BMP-7 or OP-1), bone morphogenetic protein-7; unlabeled control ligand in the binding and cell assays (protein)
chain: STGSKQRSQNRSKTPKNQEALRMANVAENSSSDQRQACKKHELYVSFRDLGWQDWIIAPEGYAAYYCEGECAFPLNSYMNATNHAIVQTLVHFINPETVPKPCCAPTQLNAISVLYFDDSSNVILKKYRNMVVRACGCH

Assays:
Smad1 in HK2 cells = assay: Smad1 accumulation in the nucleus of HK2 cells (Ser-Thr signal transduction); format: cell-based, human; details: fluorescent labeling of Smad-1, FIG. 8, FIG. 9
Excerpt: Open column is non-inflammation background level of ICAM-1; Black column is the ICAM-1 level following TNF-alpha inflammatory stimulation. […] In the Ser-Thr signaling pathway, the ligand (TDF-1 or TP2.003) bind to both the type 1 receptor (ALK3) and the type 2 receptor (BMPR2) inducing oligomerization of the receptors. The type 2 receptor under goes phosphorylation and then phosphorylates the type 1 receptor, which then phosphorylates one of Smad 1, 5 or 8 (ref. to as Smad1 below). The phosphorylated Smad1 is then picked up by Smad4 and ferried into the nucleus. Thus, detection of the concentration of Smad1 in the nucleus is diagnostic of induction of signal transduction.
Note that in the right hand column, the phase contrast images of the HK2 cells showing close to confluency; the images on the left show fluorescent labeling of Smad-1 in the nucleus of HK2 cells.

[1] = tested on: IL-6 in HK2 human transformed kidney proximal tubule cells; assay: IL-6 level in HK-2 cell medium after TNF-alpha stimulation (ELISA); format: cell-based; details: for effect on level of IL-6 in HK2 cell medium: after TNF-alpha inflammatory stimulation, FIG. 6, FIG. 10
Experimental: The immortalized PTEC-derived HK-2 (Human Kidney-2) cells (ATCC number CRL-2190) were grown in serum-free keratinocyte medium (GIBCO number 17005-042) supplemented with epidermal growth factor (EGF: 5 ng/mL) and bovine pituitary extract (40 ug/mL) for 48 hours as described previously (Ryan et al (1994) Kidney International 45:48-57). Cells were transferred to 24-well plates at a density of 3×10^5 cells per well. After 24 hours, cells were incubated with fresh medium containing TNF-alpha (5 ng/mL) for 20 hours. Controls received medium alone. Then cells were washed twice with fresh culture medium and further incubated with culture medium alone (medium control, and TNF control wells) or TDF-1 at three different concentrations (40, 200 or 1000 ng/mL) or TDFRP compounds at three different concentrations (4, 20 or 100 uM) for sixty hours. During incubation, cells were kept in a 5% CO2 humid atmosphere at 37° C. At the end of the incubation, the media were removed and stored frozen until assayed. The concentrations of IL-6 and sICAM-in culture supernatants were measured by specific ELISA.
Dilute the capture antibody to the working concentration in PBS, pH 7.4 without carrier protein. Add 61 uL of stock antibody (360 ug/mL) to 10.939 mL of PBS, gently vertex. Immediately coat a 96 well microplate (Immulon 4 HBX) with 100 uL per well of the diluted capture antibody. Seal the plate and incubate it overnight in cold (4° C.). (PBS: 8.1 mM Na2HPO4, 1.5 mM KH2PO4, 137 mM NaCl, 2.7 mM KCl, pH 7.4, 0.2 um filtered). Next day empty the wells and wash the wells three times, each time using 340 uL of wash buffer per well. (wash buffer: PBS, pH 7.4 containing 0.05% Tween-20).
Prepare blocking buffer, 35 mL per plate. To prepare blocking buffer, add 0.35 grams of BSA and 1.75 grams of sucrose to 35 mL of PBS, pH 7.4, and mix the contents gently. Add 300 uL of blocking buffer to each well and incubate the plate for a minimum of 1 hour at room temperature. Empty the wells and wash wells three times, each time using 340 uL of wash buffer per well.
Prepare a 8 point standard curve using 2-fold serial dilutions in reagent diluent. Dilute stock standard, recombinant IL-6, 70 ng/mL to an initial concentration of 2400 ng/mL in reagent diluent. Then further dilute the standard to a working range, 1200, 600, 300, 150, 75, 37.5, 18.75 and 9.375 ng/mL using reagent diluent. (to prepare reagent diluent, add 0.4 grams of BSA to 40 mL of PBS, pH 7.4 and gently vertex). Also dilute 24 uL of each sample medium (from HK-2 cell cultures) with 376 uL of reagent diluent. Add 100 uL of standard or sample per well, seal the plate and incubate it overnight in cold (4° C.).
Next day, empty the wells and wash wells three times, each time using 340 uL of wash buffer per well. […]

[2] = target: T1, BMPR-2 receptor extra cellular domain; assay: Radio-ligand receptor binding assay, competition with 125I-labeled TDF-1 for BMPR-2
Excerpt: General protocol: These assays are based on competition between ^125I-labeled TDF-1 (BMP-7 or OP-1) and candidate TDFRP compounds or unlabeled TDF-1 for binding to respective receptors (ALK-3, ALK-6 or BMPR-2). In brief, the procedure involves immobilization of receptor on 96 well Removawell plates, blocking the wells with 3% BSA in PBS and subsequently washing the wells. Increasing concentrations of unlabeled TDF-1 or TDFRP compounds or control (unlabeled TDF-1) prepared in binding buffer are then added. Incubate plate for 1 hour at room temperature, and then add a fixed amount of ^125I-labeled TDF-1 (250,000 to 350,000 cpm) to the wells and further incubate in cold (4° C.) for 20 hours. Aspirate the contents of the wells and wash the wells four times with a wash buffer, and count the receptor bound ^125I-labeled TDF-1 in an auto gamma counter. B. HK-2 Cell Culture and Determination of Cytokine Production

Molecule	Smad1 accumulation in the nucleus / induction of Ser-Thr signal transduction (Smad1 in HK2 cells)	EC50 ([1]; HK2 cells, 5 ng/ml TNF-alpha stimulus, FIG. 6, read-out: ED50, lowering of IL-6 level) [µM]	effect on level of IL-6 in HK2 cell medium [1]	specific binding to BMPR-2 / inhibition of specific binding of labeled TDF-1 to BMPR-2 receptor ([2]; competitive binding, FIG. 4)	EC50 ([2]; FIG. 3, read-out: ED50, displacing labeled TDF-1 from immobilized BMPR-2 receptor ECD) [µM]
CC(C)C[C@H](NC(=O)[C@@H](NC(=O)[C@H](CC(N)=O)NC(=O)[C@H](CO)NC(=O)[C@H](CO)NC(=O)[C@H](CC(=O)O)NC(=O)[C@H](CC(=O)O)NC(=O)[C@H](Cc1ccccc1)NC(=O)[C@H](Cc1ccc(O)cc1)NC(=O)[C@@H](N)CS)C(C)C)C(=O)N[C@@H](CS)C(=O)N[C@@H](CCCCN)C(=O)N[C@@H](CCCCN)C(=O)N[C@@H](Cc1ccc(O)cc1)C(=O)N[C@@H](CCCNC(=N)N)C(=O)N[C@@H](CO)C(=O)O [SEQ ID NO:45, CYFDDSSNVLCKKYRS] (H-CYFDDSSNVLCKKYRS-OH)	induces Ser-Thr signal transduction; also recorded: dose dependent response of Smad1 accumulation in the nucleus	~10	reduces the level of cellular inflammation marker IL-6; also recorded: lowers the level of IL-6 in a dose dependent manner	specifically binds and does	–
B1	induces Ser-Thr signal transduction; also recorded: dose dependent response of Smad1 accumulation in the nucleus	–	lowers the level of IL-6 in a dose dependent manner; also recorded: brings the IL-6 level down below the basal level	–	0.0063
